Experimental data: patent US20160237450A1, “METHOD FOR ENHANCING DROUGHT TOLERANCE IN PLANTS” (Plant Response Biotech S.L., priority 2015, published 2016)

Columns and labels:
[1] = test system: corn plants ('FAO700'); assay: Corn chlorophyll content under limited water; format: in vivo; details: 30% water; 1 g/L spray; after three months
Protocol: In order to determine the drought or drought stress tolerance after seed treatments with TMAO di-hydrate and germination in the presence of TMAO di-hydrate, barley “Hispanic” seeds, corn “FAO700” seeds, and “Sambro” sunflower seeds were surface sterilized for 3 minutes in ethanol 70%, then rinsed twice and finally included in a pre-treatment solution of 1 g/L TMAO di-hydrate solution (or just water) under shaking for 3 hours at a dose of 1 litre per Kg of seeds. Then, the seeds were sown in randomized plots of 10 sqm in a surface of 2.000 sqm. Chlorophyll content was measured 1 month before harvest. In corn irrigation was applied in half of the plots while the other half only received an initial establishment watering. The barley plots received 200 l of rain per m^2 through the growing season. Some of the plots received a second spray treatment with 1 g/liter of TMAO. […] At least 3 independent plants were treated per experiment.
TMAO di-hydrate applied exogenously increases plant production in corn which increases the endogenous content of TMAO as if the plants were overexpressing an FMO protein at least 4 times under limited water irrigation. ‘FAO700” corn seeds were sown, grown and treated as described above. […] After this time, the absorbance of the suspension (OD663) was determined as an indicator of chlorophyll concentration.

[2] = TMAO accumulation in pepper leaves after spray (NMR); details: 1 g/l spray
Protocol: TMAO content in plants was determined by harvesting three leaves per treatment and freezing them in liquid nitrogen before the Nuclear Magnetic Resonance spectroscopy (NMR) determination. At least three independent plants were treated per experiment. TMAO content in plant extracts was quantified by NMR spectrometry using a Bruker Advance DRX 500 MHz spectrometer equipped with a 5 mm inverse triple resonance probe head. A known concentration of [3-(trimethylsilyl) propionic-2,2,3,3-d4 acid sod. salt, (TSP-d4)] was used as internal reference. All experiments were conducted at 298K and the data was acquired and processed using the same parameters. Spectra processing was performed on PC station using Topspin 2.0 software (Bruker).
‘Murano’ pepper seeds and ‘Bomi’ barley seeds were sown and grown as described above. Control plants (six weeks old) were sprayed with water and pepper treated plants were sprayed with 1 g/l of TMAO di-hydrate while barley plants were sprayed with 1 g/l of TMAO di-hydrate formulated with 0.1% of C8-C10 Alkylpolysaccharide. Leaves were harvested and TMAO was determined by NMR. The percentage of TMAO increase compared to untreated controls was determined for each time point.

[3] = test system: broccoli plants (Parthenon); assay: Broccoli inflorescence fresh weight with constant TMAO irrigation; format: in vivo; details: 100% water; constant irrigation with 1 g/L
From the text: TMAO di-hydrate applied exogenously which increases the endogenous content of TMAO as if the plants were overexpressing an FMO protein at least 4 times increases plant production in broccoli. Parthenon broccoli seeds were sown, grown and treated as described above. Constant irrigation with 1 g/L TMAO di-hydrate increased plant inflorescence production.

[4] = test system: strawberry plants ('Sabrina', 'Candonga', 'Fortuna'); assay: Strawberry fruit production without drought stress (trade-off); format: in vivo; details: no drought stress; for Strawberry fruit production, % Control (2013) / Strawberry fruit production, % Control (2014): 1 g/l spray every 4 weeks for 3 months
Protocol: In order to determine the plant yield productivity under normal conditions, ‘Sabrina’, ‘Candonga’ and ‘Fortuna’ strawberry varieties, leek, lettuce, “Iceberg” variety, broccoli “Parthenon” variety, celery or kohlrabi plants, were grown under standard production conditions and 120 plants of each variety per treatment (where the treatment was a control comprising standard watering or 1 g/L of TMAO di-hydrate spray every four weeks) were analyzed. Plants were located in four (4) different positions for each group of 30 plants from the same treatment. Fruits, leaves or roots were harvested from individual plants and total weight was determined for each plant.
Fruit yield was determined in ‘Sabrina’, ‘Candonga’ and ‘Fortuna’ strawberry plants treated with 1 g/l of TMAO di-hydrate or water as described above in order to evaluate the trade-off costs of the treatment with no drought stress.

[5] = test system: pepper plants ('Palermo'); assay: Pepper fruit production, spray or constant irrigation; format: in vivo
From the text: TMAO di-hydrate applied exogenously which increases the endogenous content of TMAO as if the plants were overexpressing an FMO protein at least 4 times increases pepper production per plant and pepper fruit weight under limited water irrigation and under no stress. ‘Palermo’ pepper seeds were sown, grown and treated as described above.

[6] = 30% water, 1 g/L in every irrigation

For `C[N+](C)(C)[O-].O.O` [TMAO di-hydrate, trimethylamine N-oxide di-hydrate], the “OD663 ABSORVANCE (CHLOROPHYLL a)” value [1] was 0.7278 ± 0.076, the “TMAO % Control” value ([2]; 1 day post spray) was 529% and the “TMAO (μM) in leaves” value ([2]; 1 day post spray) was 1755.2 µM. For the same molecule, the “TMAO % Control” value ([2]; 10 days post spray) was 373%, the “TMAO (μM) in leaves” value ([2]; 10 days post spray) was 1237.6 µM and the “TMAO % Control” value ([2]; 20 days post spray) was 286%. For the same molecule, the “TMAO (μM) in leaves” value ([2]; 20 days post spray) was 948.9 µM, the “TMAO % Control” value ([2]; 30 days post spray) was 135% and the “TMAO (μM) in leaves” value ([2]; 30 days post spray) was 449.2 µM. The “TMAO % Control” value ([2]; 40 days post spray) was 213%, the “TMAO (μM) in leaves” value ([2]; 40 days post spray) was 709.4 µM and the “AVERAGE FRESH WEIGHT (GRAMS) PER INFLORESCENCE” value [3] was 220.2 ± 16.6 GRAMS. For the same molecule, the “increase of broccoli inflorescence fresh weight” value [3] was 70%, the “difference in fruit production versus water-treated plants” value ([4]; 1 g/l) was “no significant difference” and the “Strawberry fruit production, % Control (2013)” value ([4]; Candonga) was 102%. For the same molecule, the “Strawberry fruit production, % Control (2014)” value ([4]; Candonga) was 106%, the “Strawberry fruit production, % Control (2013)” value ([4]; Fortuna) was 101% and the “Strawberry fruit production, % Control (2014)” value ([4]; Fortuna) was 105%. The “Strawberry fruit production, % Control (2013)” value ([4]; Sabrina) was 106%, the “Strawberry fruit production, % Control (2014)” value ([4]; Sabrina) was 115% and the “Strawberry fruit production, % Control (2013)” value ([4]; Total of varieties) was 105%. For the same molecule, the “Strawberry fruit production, % Control (2014)” value ([4]; Total of varieties) was 111%, the “increase in average fruit weight production per pepper plant versus 100% irrigation untreated” value [5, 6] was 13.3% and the “increase in average weight per pepper fruit versus 100% irrigation untreated” value [5, 6] was 11.9%. For the same molecule, the “AVERAGE FRUIT WEIGHT (GRAMS) PER PEPPER PLANT” value ([5]; 30% water, 1 g/L irrigation) was 545.0 ± 36.4 GRAMS, the “AVERAGE FRUIT WEIGHT (GRAMS) PER PEPPER PLANT” value ([5]; 30% water, 1 g/L spray) was 504.8 ± 46.4 GRAMS and the “AVERAGE WEIGHT (GRAMS) PER PEPPER FRUIT” value ([5]; 30% water, 1 g/L spray) was 33.5 ± 0.9 GRAMS. The “increase in average fruit weight production per pepper plant versus 100% irrigation untreated” value ([5]; 30% water, 1 g/L spray) was 4.9%, the “increase in average fruit weight production per pepper plant in the absence of stress” value ([5]; 100% water, 1 g/L in every irrigation) was 17.9% and the “AVERAGE FRUIT WEIGHT (GRAMS) PER PEPPER PLANT” value ([5]; 100% water, 1 g/L irrigation) was 567.4 ± 19.6 GRAMS. The “AVERAGE WEIGHT (GRAMS) PER PEPPER FRUIT” value ([5]; 100% water, 1 g/L irrigation) was 35.7 ± 1.3 GRAMS.
